Source: patent publication US20250019387A1 (Frontier Medicines Corporation, priority 0001, published 2025)

Target: KRAS G12C and cRAF (Ras-binding domain) interaction (Homo sapiens (Human), UniProt P01116, C118S/C51S/C80L/G12C)
Assay: Inhibition of KRAS G12C and cRAF binding (AlphaScreen)
Details: GMPPNP-loaded KRAS G12C, 19-20 hours incubation with compound; read-out: IC50 (Inhibition of KRAS G12C and cRAF Binding)
Summary of the method: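 IC50 values come from 4-parameter nonlinear regression of AlphaScreen signal (680 nm excitation, 570 nm emission). Compound plates sat 19-20 h at room temperature before RBD and donor/acceptor beads were added in Hepes pH 7.4 buffer with 150 mM NaCl, 5 mM MgCl2, 2% DMSO for 60-90 min; biotin-AviTag-GST replaced RBD to flag assay-technology interferers.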

KRAS G12C and cRAF (Ras-binding domain) interaction, sequence (P01116 other isoform, or with tags, fused parts or gaps G12C/C51S/C80L/C118S): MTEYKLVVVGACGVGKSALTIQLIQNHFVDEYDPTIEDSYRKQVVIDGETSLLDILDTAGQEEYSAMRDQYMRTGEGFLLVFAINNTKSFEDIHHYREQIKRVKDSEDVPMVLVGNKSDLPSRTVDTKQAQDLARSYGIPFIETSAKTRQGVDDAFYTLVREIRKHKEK

SMILES | IC50 [nM]
CN(c1nc(OC[C@@]23CCCN2C[C@H](F)C3)nc2c(F)c(-c3cccc4cccc(Cl)c34)ncc12)[C@@H]1CCN(C(=O)C#CC2COCCN2)C1 (stereo partly drawn) [Example 238, 1-((R)-3-((7-(8-chloronaphthalen-1-yl)-8-fluoro-2-(((2R,7aS)-2-fluorohexahydro-1H-pyrrolizin-7a-yl)methoxy)pyrido[4,3-d]pyrimidin-4-yl)(methyl)amino)pyrrolidin-1-yl)-3-(morpholin-3-yl)prop-2-yn-1-one] | 10 to 100
C=CC(=O)N1C[C@H](N(C)c2nc(OC[C@@]34CCCN3C[C@H](F)C4)nc3c(F)c(-c4cccc5cccc(Cl)c45)ncc23)C(F)(F)C1 [Example 239, 1-((S)-4-((7-(8-chloronaphthalen-1-yl)-8-fluoro-2-(((2R,7aS)-2-fluorotetrahydro-1H-pyrrolizin-7a(5H)-yl)methoxy)pyrido[4,3-d]pyrimidin-4-yl)(methyl)amino)-3,3-difluoropyrrolidin-1-yl)prop-2-en-1-one] | 10 to 100
Cc1ncc(F)c(/C=C/C(=O)N2CC[C@@H](N(C)c3nc(OC[C@@]45CCCN4C[C@H](F)C5)nc4c(F)c(-c5cccc6cccc(Cl)c56)ncc34)C2)n1 [Example 241, (E)-1-((R)-3-((7-(8-chloronaphthalen-1-yl)-8-fluoro-2-(((2R,7aS)-2-fluorotetrahydro-1H-pyrrolizin-7a(5H)-yl)methoxy)pyrido[4,3-d]pyrimidin-4-yl)(methyl)amino)pyrrolidin-1-yl)-3-(5-fluoro-2-methylpyrimidin-4-yl)prop-2-en-1-one] | 100 to 500
CN1CC(C)(C#CC(=O)N2CC[C@@H](N(C)c3nc(OC[C@@]45CCCN4C[C@H](F)C5)nc4c(F)c(-c5cccc6cccc(Cl)c56)ncc34)C2)C1 [Example 242, 1-((R)-3-((7-(8-chloronaphthalen-1-yl)-8-fluoro-2-(((2R,7aS)-2-fluorohexahydro-1H-pyrrolizin-7a-yl)methoxy)pyrido[4,3-d]pyrimidin-4-yl)(methyl)amino)pyrrolidin-1-yl)-3-(1,3-dimethylazetidin-3-yl)prop-2-yn-1-one] | < 10
Cc1cc(/C=C/C(=O)N2CCN(c3nc(OC[C@@]45CCCN4C[C@H](F)C5)nc4c(F)c(-c5cccc6cccc(Cl)c56)ncc34)CC2)nc(C)n1 [Example 243, (E)-1-(4-(7-(8-chloronaphthalen-1-yl)-8-fluoro-2-(((2R,7aS)-2-fluorotetrahydro-1H-pyrrolizin-7a(5H)-yl)methoxy)pyrido[4,3-d]pyrimidin-4-yl)piperazin-1-yl)-3-(2,6-dimethylpyrimidin-4-yl)prop-2-en-1-one] | 100 to 500
Cc1ncc(F)c(/C=C/C(=O)N2CC[C@@H](N(C)c3nc(OCC45CCCN4CCC5)nc4c(F)c(-c5cccc6ccc(F)c(Cl)c56)ncc34)C2)n1 [Example 244, (R,E)-1-(3-((7-(8-chloro-7-fluoronaphthalen-1-yl)-8-fluoro-2-((tetrahydro-1H-pyrrolizin-7a(5H)-yl)methoxy)pyrido[4,3-d]pyrimidin-4-yl)(methyl)amino)pyrrolidin-1-yl)-3-(5-fluoro-2-methylpyrimidin-4-yl)prop-2-en-1-one] | 100 to 500
C=CC(=O)N1CC(CN(C)c2nc(OC[C@@]34CCCN3C[C@H](F)C4)nc3c(F)c(-c4cccc5ccc(F)c(F)c45)ncc23)C1 [Example 246, 1-(3-(((7-(7,8-difluoronaphthalen-1-yl)-8-fluoro-2-(((2R,7aS)-2-fluorotetrahydro-1H-pyrrolizin-7a(5H)-yl)methoxy)pyrido[4,3-d]pyrimidin-4-yl)(methyl)amino)methyl)azetidin-1-yl)prop-2-en-1-one] | 10 to 100
Cc1ncc(F)c(/C=C/C(=O)N2CC[C@@H](N(C)c3nc(OCC45CCCN4CCC5)nc4c(F)c(-c5cccc6cccc(Cl)c56)ncc34)C2)n1 [Example 249, (R,E)-1-(3-((7-(8-chloronaphthalen-1-yl)-8-fluoro-2-((tetrahydro-1H-pyrrolizin-7a(5H)-yl)methoxy)pyrido[4,3-d]pyrimidin-4-yl)(methyl)amino)pyrrolidin-1-yl)-3-(5-fluoro-2-methylpyrimidin-4-yl)prop-2-en-1-one] | 10 to 100
C=CC(=O)N1CC[C@@H](N(CC2CC2)c2nc(OC[C@@]34CCCN3C[C@H](F)C4)nc3c(F)c(-c4cccc5cccc(Cl)c45)ncc23)C1 [Example 250, 1-((R)-3-((7-(8-chloronaphthalen-1-yl)-8-fluoro-2-(((2R,7aS)-2-fluorohexahydro-1H-pyrrolizin-7a-yl)methoxy)pyrido[4,3-d]pyrimidin-4-yl)(cyclopropylmethyl)amino)pyrrolidin-1-yl)prop-2-en-1-one] | 100 to 500
CN(c1nc(OC[C@@]23CCCN2C[C@H](F)C3)nc2c(F)c(-c3cccc4ccc(F)c(Cl)c34)ncc12)[C@@H]1CCN(C(=O)/C=C/C2CCCO2)C1 (stereo partly drawn) [Example 252, (E)-1-((R)-3-((7-(8-chloro-7-fluoronaphthalen-1-yl)-8-fluoro-2-(((2R,7aS)-2-fluorotetrahydro-1H-pyrrolizin-7a(5H)-yl)methoxy)pyrido[4,3-d]pyrimidin-4-yl)(methyl)amino)pyrrolidin-1-yl)-3-(tetrahydrofuran-2-yl)prop-2-en-1-one] | 100 to 500
C=CC(=O)N1CC[C@@H](N(C)c2nc(OCC34CCCN3CCC4)nc3c(F)c(-c4cccc5ccc(F)c(CC)c45)ncc23)C1 [Example 253, (R)-1-(3-((7-(8-ethyl-7-fluoronaphthalen-1-yl)-8-fluoro-2-((tetrahydro-1H-pyrrolizin-7a(5H)-yl)methoxy)pyrido[4,3-d]pyrimidin-4-yl)(methyl)amino)pyrrolidin-1-yl)prop-2-en-1-one] | 100 to 500
Cc1nccc(/C=C/C(=O)N2CCC[C@H](N(C)c3nc(OC[C@@]45CCCN4C[C@H](F)C5)nc4c(F)c(-c5cccc6cccc(Cl)c56)ncc34)C2)n1 [Example 260, (E)-1-((S)-3-((7-(8-chloronaphthalen-1-yl)-8-fluoro-2-(((2R,7aS)-2-fluorotetrahydro-1H-pyrrolizin-7a(5H)-yl)methoxy)pyrido[4,3-d]pyrimidin-4-yl)(methyl)amino)piperidin-1-yl)-3-(2-methylpyrimidin-4-yl)prop-2-en-1-one] | 100 to 500
Cc1nccc(/C=C/C(=O)N2CCC(Nc3nc(OC[C@@]45CCCN4C[C@H](F)C5)nc4c(F)c(-c5cccc6cccc(Cl)c56)ncc34)CC2)n1 [Example 261, (E)-1-(4-((7-(8-chloronaphthalen-1-yl)-8-fluoro-2-(((2R,7aS)-2-fluorotetrahydro-1H-pyrrolizin-7a(5H)-yl)methoxy)pyrido[4,3-d]pyrimidin-4-yl)amino)piperidin-1-yl)-3-(2-methylpyrimidin-4-yl)prop-2-en-1-one] | > 500

Continued, values first:

IC50 [nM] | SMILES
10 to 100 | C=CC(=O)N1CC(CN(C)c2nc(OC[C@@]34CCCN3C[C@H](F)C4)nc3c(F)c(-c4cccc5ccc(F)c(CC)c45)ncc23)C1 [Example 254, 1-(3-(((7-(8-ethyl-7-fluoronaphthalen-1-yl)-8-fluoro-2-(((2R,7aS)-2-fluorohexahydro-1H-pyrrolizin-7a-yl)methoxy)pyrido[4,3-d]pyrimidin-4-yl)(methyl)amino)methyl)azetidin-1-yl)prop-2-en-1-one]
100 to 500 | Cc1nccc(/C=C/C(=O)N2CCC[C@@H](Nc3nc(OC[C@@]45CCCN4C[C@H](F)C5)nc4c(F)c(-c5cccc6cccc(Cl)c56)ncc34)C2)n1 [Example 262, (E)-1-((R)-3-((7-(8-chloronaphthalen-1-yl)-8-fluoro-2-(((2R,7aS)-2-fluorotetrahydro-1H-pyrrolizin-7a(5H)-yl)methoxy)pyrido[4,3-d]pyrimidin-4-yl)amino)piperidin-1-yl)-3-(2-methylpyrimidin-4-yl)prop-2-en-1-one]
> 500 | C=CC(=O)N1CC[C@@H](N(C)c2nc(OC[C@@]34CCCN3C[C@H](F)C4)nc3c(F)c(-c4cccc5cc(Cl)cc(Cl)c45)ncc23)C1 [Example 263, 1-((R)-3-((7-(6,8-dichloronaphthalen-1-yl)-8-fluoro-2-(((2R,7aS)-2-fluorotetrahydro-1H-pyrrolizin-7a(5H)-yl)methoxy)pyrido[4,3-d]pyrimidin-4-yl)(methyl)amino)pyrrolidin-1-yl)prop-2-en-1-one]
100 to 500 | C=CC(=O)N1CC[C@@H](N(CCC#N)c2nc(OC[C@@]34CCCN3C[C@H](F)C4)nc3c(F)c(-c4cccc5cccc(Cl)c45)ncc23)C1 [Example 264, 3-(((R)-1-acryloylpyrrolidin-3-yl)(7-(8-chloronaphthalen-1-yl)-8-fluoro-2-(((2R,7aS)-2-fluorohexahydro-1H-pyrrolizin-7a-yl)methoxy)pyrido[4,3-d]pyrimidin-4-yl)amino)propanenitrile]
10 to 100 | C=CC(=O)N1CC[C@@H](N(C)c2nc(OCC34CCCN3CCC4)nc3c(F)c(-c4cccc5ccc(F)c(F)c45)ncc23)C1 [Example 265, (R)-1-(3-((7-(7,8-difluoronaphthalen-1-yl)-8-fluoro-2-((tetrahydro-1H-pyrrolizin-7a(5H)-yl)methoxy)pyrido[4,3-d]pyrimidin-4-yl)(methyl)amino)pyrrolidin-1-yl)prop-2-en-1-one]
100 to 500 | C=CC(=O)N1CC[C@@H](N(C)c2nc(OC[C@@]34CCCN3C[C@H](F)C4)nc3c(F)c(-c4cccc5cc(F)c(F)cc45)ncc23)C1 [Example 266, 1-((R)-3-((7-(6,7-difluoronaphthalen-1-yl)-8-fluoro-2-(((2R,7aS)-2-fluorotetrahydro-1H-pyrrolizin-7a(5H)-yl)methoxy)pyrido[4,3-d]pyrimidin-4-yl)(methyl)amino)pyrrolidin-1-yl)prop-2-en-1-one]
100 to 500 | CN(c1nc(OC[C@@]23CCCN2C[C@H](F)C3)nc2c(F)c(-c3cccc4cccc(Cl)c34)ncc12)[C@@H]1CCN(C(=O)C=C2CCC2)C1 [Example 267, 1-((R)-3-((7-(8-chloronaphthalen-1-yl)-8-fluoro-2-(((2R,7aS)-2-fluorotetrahydro-1H-pyrrolizin-7a(5H)-yl)methoxy)pyrido[4,3-d]pyrimidin-4-yl)(methyl)amino)pyrrolidin-1-yl)-2-cyclobutylideneethan-1-one]
